{"source": "patent US6258790A", "about": "“Antisense modulation of integrin α4 expression” (Isis Pharmaceuticals, Inc., priority 1999, dated 2001)", "key": {"human integrin α4": {"test_system": "human integrin α4", "assay": "Inhibition of human integrin α4 protein levels by antisense oligonucleotides (LIPOFECTIN, flow cytometry with CD49d-FITC) in A375 melanoma cells", "type": "cell-based"}, "murine integrin α4": {"test_system": "murine integrin α4", "assay": "Antisense inhibition of murine integrin α4 protein expression in IC-21 macrophage cells (flow cytometry, CD49d-PE)", "type": "cell-based, mouse", "conditions": "for % Control / % Inhib.: Table 16", "description": "Murine IC-21 macrophage cells (American Type Culture Collection, Manassas, Va.) were used for further study. Additional oligonucleotides were designed to target murine integrin α4. These are shown in Table 10; all 2' MOE nucleotides are shown in bold and remaining positions are 2' deoxy. All 2'-MOE cytosines in these compounds are 5' methylcytosines. IC-21 cells were seeded at 5×10^4 cell/well plates two days before assay. […] Wells were triplicates.\nCells (triplicates) were seeded at 2.5×10^4 cells/well in 24-well plates the day before treatment. Oligonucleotide concentrations were 0.2, 1, 5, 25 and 50 nM in 3 ug/ml LIPOFECTIN. Cells were harvested with 2 mM EDTA for 4 minutes, then 1 ml of 2% BSA, 0.2% azide was added per contents of each well.\nIC-21 cells were treated with 0.3, 1, 3, 10 and 30 nM oligonucleotide with 3 ug/ml LIPOFECTIN for 4 hours. Cells were incubated for 24 hours, harvested with trypsin, stained with 2 ug/ml CD49d-PE and rat IgG2B as in previous examples.\nThese compounds were tested for ability to inhibit integrin α4 protein expression."}, "integrin α4": {"test_system": "integrin α4", "assay": "Inhibition of integrin α4 protein expression in Jurkat T-lymphocyte cells", "type": "cell-based, human", "description": "ISIS 107248 was tested at doses of 1, 3, 10, 20 and 30 μM for ability to inhibit integrin α4 expression in Jurkat T-lymphocyte cells according to the previous examples. Integrin α4 protein expression was reduced by approximately 65-72% at oligonucleotide doses of 3-30 μM at 24 hours after oligonucleotide treatment. At 48 hours after treatment, integrin α4 protein expression was reduced by 60% at 3 μM and by 90% at 10, 20 and 30 μM oligonucleotide concentration."}, "[1]": {"test_system": "A375 melanoma cell adherence to HUVEC", "assay": "Adherence of A375 melanoma cells to HUVEC (flow cytometry)", "type": "cell-based, human", "conditions": "10 μM; compared to TNF treated control", "description": "Human umbilical vein endothelial cells (HUVEC) (Clonetics, San Diego Calif.) were cultured in EGM-UV medium (Clonetics)and treated with TNFA for 20 hours to induce VCAM expression. A375 melanoma cells were electroporated with ISIS 107248 as described above. Using antibody to PECAM, a specific marker for endothelial cells, flow cytometry was used to quantitate the inhibition of adherence of A375 melanoma cells to HUVECs. Compared to control (TNF treated, no oligonucleotide), ISIS 107248 (10 μM) inhibited A375 melanoma cell adherence to HUVEC by approximately 85%. An antibody to integrin α4 inhibited adherence by approximately 72%. Melanoma cells represent a clinically relevant model because a statistically significant correlation has been shown between increased expression of VLA-4 expression(of which integrin α4 is one member) and time to progression and overall survival time of patients with melanoma. Schadendorf et al., J. Natl. Cancer Inst., 1995, 87, 366-371."}, "[2]": {"test_system": "Jurkat T-cell adherence to HUVEC", "assay": "Adherence of Jurkat T-cells to HUVEC (flow cytometry)", "type": "cell-based, human", "description": "A similar adherence assay was performed using Jurkat T-cells instead of melanoma cells, again detecting adherence to HUVEC. Because Jurkat cells are smaller and less complex, they can be separated from HUVEC by gating on the basis of differences in forward light scatter and side scatter. For 5000 HUVEC events, adherent Jurkat cells were quantitated. At oligonucleotide concentrations of 1, 3, 10, and 30 μM ISIS 107248, adherence of Jurkat cells to HUVEC was 0, 12%, 32% and 63%, respectively."}}}
{"substance": "17044 (CCGCAGCCATGCGCTCTTGG; phosphorothioate, 2'-MOE/deoxy, further chemistry not given here) [compound 17044]", "values": [{"measurement": "% Control", "setting": "human integrin α4; Table 4, 10 nM", "value": 86, "unit": "%"}, {"measurement": "% Inhib.", "setting": "human integrin α4; Table 4, 10 nM", "value": 14, "unit": "%"}, {"measurement": "% Control", "setting": "human integrin α4; Table 4, 30 nM", "value": 73, "unit": "%"}, {"measurement": "% Inhib.", "setting": "human integrin α4; Table 4, 30 nM", "value": 27, "unit": "%"}, {"measurement": "% Control", "setting": "human integrin α4; Table 4, 100 nM", "value": 60, "unit": "%"}, {"measurement": "% Inhib.", "setting": "human integrin α4; Table 4, 100 nM", "value": 40, "unit": "%"}, {"measurement": "% Control", "setting": "human integrin α4; Table 4, 300 nM", "value": 58, "unit": "%"}, {"measurement": "% Inhib.", "setting": "human integrin α4; Table 4, 300 nM (highest dose)", "value": 42, "unit": "%"}, {"measurement": "% Control", "setting": "human integrin α4; Table 6, 10 nM", "value": 97, "unit": "%"}, {"measurement": "% Control", "setting": "human integrin α4; Table 6, 30 nM", "value": 84, "unit": "%"}, {"measurement": "% Inhib.", "setting": "human integrin α4; Table 6, 30 nM", "value": 16, "unit": "%"}, {"measurement": "% Control", "setting": "human integrin α4; Table 6, 100 nM", "value": 68, "unit": "%"}, {"measurement": "% Inhib.", "setting": "human integrin α4; Table 6, 100 nM", "value": 32, "unit": "%"}, {"measurement": "% Control", "setting": "human integrin α4; Table 6, 300 nM", "value": 39, "unit": "%"}, {"measurement": "% Inhib.", "setting": "human integrin α4; Table 6, 300 nM (highest dose)", "value": 61, "unit": "%"}, {"measurement": "reduction of integrin α4 expression", "setting": "murine integrin α4; Example 14", "value": "reduce integrin α4 expression to below starting levels"}, {"measurement": "% Control", "setting": "murine integrin α4; 0.3 nM", "value": 100, "unit": "%"}, {"measurement": "% Inhib.", "setting": "murine integrin α4; 0.3 nM", "value": 0, "unit": "%"}, {"measurement": "% Control", "setting": "murine integrin α4; 1 nM", "value": 81, "unit": "%"}, {"measurement": "% Inhib.", "setting": "murine integrin α4; 1 nM", "value": 19, "unit": "%"}, {"measurement": "% Control", "setting": "murine integrin α4; 3 nM", "value": 32, "unit": "%"}, {"measurement": "% Inhib.", "setting": "murine integrin α4; 3 nM", "value": 68, "unit": "%"}, {"measurement": "% Control", "setting": "murine integrin α4; 10 nM", "value": -9, "unit": "%"}, {"measurement": "% Inhib.", "setting": "murine integrin α4; 10 nM", "value": "> 100", "unit": "%"}]}
{"substance": "107248 (antisense CTGAGTCTGTTTTCCATTCT; chemistry not given here) [compound 107248]", "values": [{"measurement": "% Control", "setting": "human integrin α4; Table 24, A375 cells, lipofectin, as Example 8", "value": 34, "unit": "%"}, {"measurement": "reduction of integrin α4 protein expression", "setting": "integrin α4; 3 μM, 48 hours", "value": 60, "unit": "%"}, {"measurement": "reduction of integrin α4 protein expression", "setting": "integrin α4; 10 μM, 48 hours", "value": 90, "unit": "%"}, {"measurement": "reduction of integrin α4 protein expression", "setting": "integrin α4; 20 μM, 48 hours", "value": 90, "unit": "%"}, {"measurement": "reduction of integrin α4 protein expression", "setting": "integrin α4; 30 μM, 48 hours", "value": 90, "unit": "%"}, {"measurement": "reduction of integrin α4 protein expression", "setting": "integrin α4; 3-30 μM, 24 hours", "value": "65-72%"}, {"measurement": "inhibition of A375 melanoma cell adherence to HUVEC", "setting": "[1]", "value": "approximately 85%"}, {"measurement": "adherence of Jurkat cells to HUVEC", "setting": "[2]; 1 μM", "value": 0, "unit": "%"}, {"measurement": "adherence of Jurkat cells to HUVEC", "setting": "[2]; 3 μM", "value": 12, "unit": "%"}, {"measurement": "adherence of Jurkat cells to HUVEC", "setting": "[2]; 10 μM", "value": 32, "unit": "%"}, {"measurement": "adherence of Jurkat cells to HUVEC", "setting": "[2]; 30 μM", "value": 63, "unit": "%"}]}
